Reference: paper PMC3913857, “Regorafenib in Japanese patients with solid tumors: phase I study of safety, efficacy, and pharmacokinetics” (Investigational New Drugs, 2013)
Like-named read-outs stand apart in the source and are kept apart here.

What was measured:
[1] = tested on: treatment-refractory advanced solid tumors; assay: Tumor response (RECIST version 1.0), Japan phase I study; type: in vivo, Japanese patients
Experimental: (§1) All patients who received at least one dose of regorafenib were eligible for safety analyses and were included in the efficacy analyses if they also had post-baseline efficacy data. For the safety analysis, physical examination, vital signs, use of concomitant medications, and laboratory test data were reported, and patients were routinely monitored for adverse events, which were recorded with severity and relationship to study medication according to the National Cancer Institute Common Terminology Criteria for Adverse Events version 3.0. Tumor response was assessed every 8 weeks for the first 6 cycles and every 12 weeks after Cycle 6 by Response Evaluation Criteria in Solid Tumors version 1.0, using the same imaging techniques and methods as at baseline. The response rate was defined as the proportion of patients whose best response was a confirmed partial or complete response.

[2] = tested on: UDP-glucuronosyltransferase 1A9; parameters: method as in ref 11 = [11]; 11. Bayer HealthCare AG, data on file; conditions: in vitro, glucuronidation; cited from earlier work
[3] = parameters: method as in PMID 22421192; conditions: European phase I study, 160 mg cohort only, n = 12, cited from earlier work
cytochrome p450 3A4 = tested on: cytochrome p450 3A4; parameters: method as in ref 11 = [11]; 11. Bayer HealthCare AG, data on file; conditions: in vitro; cited from earlier work
clinical = assay: clinical; parameters: species or system Japanese patients; conditions: in vivo
Experimental: Patients who provided at least one evaluable pharmacokinetic sample were eligible for pharmacokinetic analyses.
Plasma concentrations of regorafenib and its metabolites were determined by fully validated liquid chromatography–tandem mass spectrometry after protein precipitation with acetonitrile/ammonium acetate buffer containing the internal standards [^2H3 ^15N] BAY 73-4506 (for regorafenib), [^2H3 ^15N] […] BAY 81-8752 (for the M5 metabolite).

[4] = parameters: method as in PMID 22421192, PMID 22568966; conditions: European phase I and II studies; cited from earlier work
[5] = Safety: adverse events (NCI CTCAE v3.0) and laboratory toxicities, Japan phase I study; parameters: species or system Japanese patients; conditions: in vivo
Experimental: as §1
Unacceptable toxicity was defined as any of the following events occurring during Cycle 1 and considered to be related to study drug: grade 4 neutropenia (for ≥7 days); febrile neutropenia with grade 4 neutropenia and fever; grade 4 thrombocytopenia; grade 3 or 4 nonhematologic toxicities (excluding events considered to be tolerable by the investigator). If two of the first three or three of the first six patients treated with regorafenib experienced unacceptable toxicities during Cycle 1, the safety data were reviewed by the Data Monitoring Committee, which considered whether protocol amendments were needed to address any safety concerns before subsequent patients were treated.

[6] = parameters: method as in ref 7 = [7]; 7. Eisen T, Joenssu H, Nathan P Harper P, Wojtukiewicz M, Nicholson S, Bahl A, Tomczak P, Wagner A, Quinn D (2011) Phase II trial of the oral multi kinase inhibitor regorafenib (BAY 73-4506) as first-; conditions: European phase II study, advanced renal cell carcinoma, n = 49, cited from earlier work
[7] = any time after start of study treatment

CNC(=O)c1cc(Oc2ccc(NC(=O)Nc3ccc(Cl)c(C(F)(F)F)c3)c(F)c2)ccn1 [Regorafenib]
Complete response ([1]; 15 patients): no patient | Overall response rate ([1]; 15 patients, 95 % confidence interval 0.2–31.9 %): 7% | Median time to progression ([1]; 95 % confidence interval 1.9–12.4 months): 3.7 months | Duration of response (partial response) ([1]; one patient, pancreatic neuroendocrine tumor): 10.5 months | Metabolizing enzyme [2]: UDP-glucuronosyltransferase 1A9 glucuronidation | Incidence of biochemical toxicities: ALT, all grades [3, 7]: 75% | Incidence of biochemical toxicities: ALT, grade 3/4 [3, 7]: 25% | Incidence of biochemical toxicities: AST, all grades [3, 7]: 75% | Incidence of biochemical toxicities: AST, grade 3/4 [3, 7]: 25% | Adverse events: Alopecia, all grades [3]: 33% | Adverse events: Alopecia, grade 3/4 [3]: 0% | Adverse events: Anorexia, all grades [3]: 50% | Adverse events: Anorexia, grade 3/4 [3]: 8% | Adverse events: Diarrhea, all grades [3]: 50% | Adverse events: Diarrhea, grade 3/4 [3]: 17% | Adverse events: Fatigue, all grades [3]: 17% | Adverse events: Fatigue, grade 3/4 [3]: 0% | Adverse events: Hand–foot skin reaction, all grades [3]: 67% | Adverse events: Hand–foot skin reaction, grade 3/4 [3]: 25% | Adverse events: Hypertension, all grades [3]: 50% | Adverse events: Hypertension, grade 3/4 [3]: 17% | Adverse events: Rash, all grades [3]: 50% | Adverse events: Rash, grade 3/4 [3]: 8% | Adverse events: Voice changes/hoarseness, all grades [3]: 42% | Adverse events: Voice changes/hoarseness, grade 3/4 [3]: 0% | Metabolizing enzyme (cytochrome p450 3A4): metabolized by cytochrome p450 3A4 | AUC (clinical; human, po, 160 mg): 34600 ng·h/mL | AUC(0-t) (clinical; human, po, 160 mg): 16400 ng·h/mL | Cmax (clinical; human, po, 160 mg): 1370 ng/mL | t 1/2 (terminal half life) (clinical; human, po, 160 mg): 27.4 (29.9) h | t max (clinical; human, po, 160 mg): 4 h | half-life (clinical; human, po, 160 mg, t 1/2 (terminal half life)): ~27 h | AUC(0-t) (clinical; human, Cycle 1 day 21, regorafenib 160 mg once daily for 21 days, N = 12, geometric mean (% coefficient of variance), read-out: AUC0–24): 33000 ng·h/mL | Cmax (clinical; human, Cycle 1 day 21, regorafenib 160 mg once daily for 21 days, N = 12, geometric mean (% coefficient of variance), read-out: C max): 2520 ng/mL | half-life (clinical; human, Cycle 1 day 21, regorafenib 160 mg once daily for 21 days, N = 12, geometric mean (% coefficient of variance), read-out: t 1/2 (terminal half life) (converted)): 30.4 h | t max (clinical; human, Cycle 1 day 21, regorafenib 160 mg once daily for 21 days, N = 12, median (range), read-out: t max): 3.6 h | Change in t max and t 1/2 between single dosing and 21-day multiple dosing (clinical): no significant change | Frequency of hand–foot skin reaction [4]: 67–71% | Biochemical abnormality: alkaline phosphatase (ALP) elevation ([5]; human): 93% | Biochemical abnormality: hypoalbuminemia ([5]; human): 93% | Biochemical abnormality: hypophosphatemia ([5]; human): 80% | Biochemical abnormality: proteinuria ([5]; human): 80% | Biochemical toxicity: ALP elevation, any grade ([5]; human): 14 (93) n (%) | Biochemical toxicity: ALP elevation, grade 3 or 4 ([5]; human): 2 (13) n (%) | Biochemical toxicity: ALT elevation, any grade ([5]; human): 12 (80) n (%) | Biochemical toxicity: ALT elevation, grade 3 or 4 ([5]; human): 3 (20) n (%) | Biochemical toxicity: AST elevation, any grade ([5]; human): 13 (87) n (%) | Biochemical toxicity: AST elevation, grade 3 or 4 ([5]; human): 3 (20) n (%) | Biochemical toxicity: Hypoalbuminemia, any grade ([5]; human): 14 (93) n (%) | Biochemical toxicity: Hypoalbuminemia, grade 3 or 4 ([5]; human): 0 n (%) | Biochemical toxicity: Hypocalcemia, any grade ([5]; human): 9 (60) n (%) | Biochemical toxicity: Hypocalcemia, grade 3 or 4 ([5]; human): 0 n (%) | Biochemical toxicity: Hypophosphatemia, any grade ([5]; human): 12 (80) n (%) | Biochemical toxicity: Hypophosphatemia, grade 3 or 4 ([5]; human): 4 (27) n (%) | Biochemical toxicity: Proteinuria, grade 3 or 4 ([5]; human): 1 (7) n (%) | Incidence of biochemical toxicities: ALT, grade 3/4 ([5]; human): 20% | Incidence of biochemical toxicities: AST, all grades ([5]; human): 87% | Incidence of biochemical toxicities: AST, grade 3/4 ([5]; human): 20% | Patients with at least one drug-related treatment-emergent adverse event of any grade ([5]; human): 15 patients | Treatment discontinuation for adverse event: anemia ([5]; human): 1 n | Treatment discontinuation for adverse event: liver enzyme elevation ([5]; human): 1 n | Grade of drug-related adverse event resulting in treatment reduction or interruption: ALT elevation ([5]; human, 1 cycle): 3 | Grade of drug-related adverse event resulting in treatment reduction or interruption: AST elevation ([5]; human, 1 cycle): 3 | Grade of drug-related adverse event resulting in treatment reduction or interruption: Hypertension ([5]; human, 1 cycle): 2 | Grade of drug-related adverse event resulting in treatment reduction or interruption: Leukopenia ([5]; human, 1 cycle): 2 | Grade of drug-related adverse event resulting in treatment reduction or interruption: Neutropenia ([5]; human, 1 cycle): 3 | Grade of drug-related adverse event resulting in treatment reduction or interruption: Thrombocytopenia ([5]; human, 1 cycle): 2 | Grade of drug-related adverse event resulting in treatment reduction or interruption: ALT elevation ([5]; human, 2 cycle): 4 | Grade of drug-related adverse event resulting in treatment reduction or interruption: Hand–foot skin reaction ([5]; human, 2 cycle): 3 | Grade of drug-related adverse event resulting in treatment reduction or interruption: Dental pulpitis ([5]; human, 3 cycle): 2 | Grade of drug-related adverse event resulting in treatment reduction or interruption: Diarrhea ([5]; human, 3 cycle): 3 | Grade of drug-related adverse event resulting in treatment reduction or interruption: Hand–foot skin reaction ([5]; human, 3 cycle): 1 | Grade of drug-related adverse event resulting in treatment reduction or interruption: Hand–foot skin reaction (event cell empty, from line above) ([5]; human, 3 cycle): 1 | Grade of drug-related adverse event resulting in treatment reduction or interruption: Hand–foot skin reaction ([5]; human, 7 cycle): 3 | Grade of drug-related adverse event resulting in treatment reduction or interruption: Hand–foot skin reaction (event cell empty, from line above) ([5]; human, 9 cycle): 1 | Grade of drug-related adverse event resulting in treatment reduction or interruption: Proteinuria ([5]; human, 9 cycle): 3 | Grade of drug-related adverse event resulting in treatment reduction or interruption: Proteinuria ([5]; human, 10 cycle): 2 | Grade of drug-related adverse event resulting in treatment reduction or interruption: Back pain ([5]; human, 11 cycle): 3 | Grade of drug-related adverse event resulting in treatment reduction or interruption: Gingivitis ([5]; human, 18 cycle): 2 | Changes in vital signs or electrocardiogram findings [5]: No clear changes | Cycle delay (start of next cycle delayed longer than 7 days) because of adverse events [5]: four | Dose reduction because of adverse events [5]: six | Drug-related adverse events leading to dose interruption or dose reduction [5]: eight | Interruption of regorafenib during daily treatment because of adverse events [5]: seven | Serious adverse events [5]: six | Serious adverse events deemed treatment-related [5]: three | Treatment-related deaths [5]: No treatment-related deaths | Incidence of biochemical toxicities: ALT, all grades [6, 7]: 39% | Incidence of biochemical toxicities: ALT, grade 3/4 [6, 7]: 2% | Incidence of biochemical toxicities: AST, all grades [6, 7]: 41% | Incidence of biochemical toxicities: AST, grade 3/4 [6, 7]: 2% | Adverse events: Alopecia, all grades ([6]; untreated): 45% | Adverse events: Alopecia, grade 3/4 ([6]; untreated): 0% | Adverse events: Anorexia, all grades ([6]; untreated): 29% | Adverse events: Anorexia, grade 3/4 ([6]; untreated): 6% | Adverse events: Diarrhea, all grades ([6]; untreated): 45% | Adverse events: Diarrhea, grade 3/4 ([6]; untreated): 10% | Adverse events: Fatigue, all grades ([6]; untreated): 53% | Adverse events: Fatigue, grade 3/4 ([6]; untreated): 8% | Adverse events: Hand–foot skin reaction, all grades ([6]; untreated): 71% | Adverse events: Hand–foot skin reaction, grade 3/4 ([6]; untreated): 33% | Adverse events: Hypertension, all grades ([6]; untreated): 49% | Adverse events: Hypertension, grade 3/4 ([6]; untreated): 6% | Adverse events: Rash, all grades ([6]; untreated): 39% | Adverse events: Rash, grade 3/4 ([6]; untreated): 6% | Adverse events: Voice changes/hoarseness, all grades ([6]; untreated): 35% | Adverse events: Voice changes/hoarseness, grade 3/4 ([6]; untreated): 0%
